Assay results reported in patent US6274596A, “Benzoquinoline derivatives useful as antibacterial agents” (priority 1999, dated 2001).
In brackets after ≈: the same amount, converted by molar mass. Read-outs that look alike come from different tables or passages of the source.

Assays:
E. coli (BAS) [1] = assay: MBC, E. coli (BAS); assay type: cell-based; settings: minimum bactericidal concentration; for MBC: Escherichia coli, read-out: MBG
Description: (§1) The antimicrobial activity of a compound or formulation according to the invention is determined by exposing a culture comprising a bacterial species to different concentrations of the compound or formulation and monitoring the effects on growth relative to a control culture not exposed to the compound. Any method known in the art may be used to assess bacterial growth. Antimicrobial effects are expressed as Minimal Inhibitory Concentration (MIC) and Minimum Bactericidal Concentration (MBC).
(§2) The minimum bactericidal concentration (MBC) is defined as the concentration of antimicrobial agent from which no colonies grow on petri plates or in the medium. In practice, the MBC is arbitrarily defmed as the concentration at which a 1000-fold reduction in colony forming units is observed with respect to the original inoculum (survival of 0.1%). Typically, the wells from a MIC microliter plate using a 96-well inoculation grid into a fresh microliter plate containing 100 μL Mueller-Hinton broth per well. The MBC plates are incubated at 37° C. for 16-20 hrs and the MBC values are determined.
(§3) The antimicrobial activities of the compounds of the invention, expressed as MIC and MBC, were determined as described above, using as tester strains wild-type S. aureus, rifampicin-resistant S. aureus, wild-type E. coli, and E. coli cells that had been permeabilized.

E. coli (MCR106) [2] = assay: MBC, E. coli (MCR106); assay type: cell-based; settings: minimum bactericidal concentration; for MBC: Escherichia coli, read-out: MBG
Description: as §1, §2, §3

S. Aureus [3] = assay: MBC, S. Aureus; assay type: cell-based; settings: for MBC: Staphylococcus aureus, read-out: MBG
Description: as §1, §2, §3

S. Aureus (Rif-res) [4] = assay: MIC, broth microdilution, S. Aureus (Rif-res); assay type: cell-based
Description: as §1
(§4) The MIC is expressed as a range between the concentration at which no growth is observed and the concentration of the dilution which immediately follows.
(§5) Typically, MIC is measured using a broth microdilution assay as follows. Dilution of candidate antimicrobial compounds in culture medium is performed in a sterile, covered 96-well microtiter plate with flat bottom wells (Costar #9017). The final concentrations of the compounds are typically 100, 50, 25, 12.5, 6.25, 3.12, 1.56, 0.78, 0.39, 0.20, 0.10, and 0.05 μg/mL, respectively. Culture medium only (containing no bacteria) is also included as a negative control for each plate. Ampicillin and rifamnpin are used as positive controls against all bacterial strains in every experiment.
(§6) The overnight culture of a single colony is diluted in sterile medium so that, after inoculation, each well contains approximately 5×10^5CFU/mL. Within 15 minutes of preparation, […] of the adjusted inoculum suspension is added to the microliter plate. Each well is diluted with an equal volume of the antimicrobial compounds or control solution. The inoculated microtiter plate is typically incubated at 35° C. for 16-20 hours. The turbidity of each well is determined by measuring the absorbance at 595 nm using a BioRad Model 3550-UV microplate reader.
as §3

S. Aureus (Rif-res) [5] = assay: MBC, S. Aureus (Rif-res); assay type: cell-based; settings: for MBC: Staphylococcus aureus, read-out: MBG
Description: as §1, §2, §3

E. coli (BAS) [6] = assay: MIC, broth microdilution, E. coli (BAS); assay type: cell-based
Description: as §1, §4, §5, §6, §3

E. coli (MCR106) [7] = assay: MIC, broth microdilution, E. coli (MCR106); assay type: cell-based
Description: as §1, §4, §5, §6, §3

S. Aureus [8] = assay: MIC, broth microdilution, S. Aureus; assay type: cell-based; settings: for MIC: S. Aureus
Description: as §1, §4, §5, §6, §3

bacterial RNA polymerase = assay: in vitro transcription, bacterial versus human RNA polymerase; assay type: biochemical; settings: in words; RNA polymerase from S. aureus, E. coli or human, pTaq promoter template
Text: The compounds useful for inclusion in the pharmaceutical formulations of the invention can be identified by their ability to bind to, and/or inhibit the activity of, one or more bacterial RNA polymerases. RNA polymerase as used herein refers to DNA-dependent RNA polymerase holoenzyme, which is a complex consisting of five protein subunits: two copies of the a subunit and one copy each of the β, β', and σ subunits. The α, β and β' subunits are invariant in a given bacterial species and together form core RNA polymerase.
RNA polymerase inhibition activity of a compound can be detected by including the compound in an in vitro transcription reaction and comparing the level of transcription that occurs in the presence and absence of the compound. […] After incubation for 60 minutes at 25° C., the reaction is terminated with 100 μl 10% TCA, which also precipitates the newly transcribed RNA, and incorporation of radioactivity into RNA is quantified. […]
It will be understood that useful antimicrobial compositions and formulations act selectively on microbial pathogens. […] That is, the inhibitory activity of a particular compound towards an animal RNA polymerase may be measured in parallel with a bacterial RNA polymerase. […]

[9] = Escherichia coli, read-out: MIC
[10] = Staphylococcus aureus, read-out: MIC

OCCCN1CCN(c2ccc(Nc3ccnc4cc5ccccc5cc34)cc2)CC1 [3{4-[4-(benzo[g]quinolin-4-yl-amino)phenyl]-1-piperazinyl}-1-propanol]
MBC (E. coli (BAS) [1]): 8 µg/mL (≈ 19.4 µM) | MBC (E. coli (MCR106) [2]): 64 µg/mL (≈ 155 µM) | MBC (S. Aureus [3]): 32 µg/mL (≈ 77.6 µM) | MIC (S. Aureus (Rif-res) [4]; Staphylococcus aureus): 8 µg/mL (≈ 19.4 µM) | MBC (S. Aureus (Rif-res) [5]): 8 µg/mL (≈ 19.4 µM) | MIC (E. coli (BAS) [6]; [9]): 8 µg/mL (≈ 19.4 µM) | MIC (E. coli (MCR106) [7]; Escherichia coli): 16 µg/mL (≈ 38.8 µM) | MIC (S. Aureus [8]; [10]): 32 µg/mL (≈ 77.6 µM)

CCCCC(C)Nc1ccnc2cc3ccccc3cc12 (centres unmarked) [N-(1-methylpentyl)benzo[g]quinolin-4-amine]
MBC (E. coli (BAS) [1]): 16 µg/mL (≈ 57.5 µM) | MBC (E. coli (MCR106) [2]): > 64 µg/mL | MBC (S. Aureus [3]): 16 µg/mL (≈ 57.5 µM) | MIC (S. Aureus (Rif-res) [4]; Staphylococcus aureus): 8 µg/mL (≈ 28.7 µM) | MBC (S. Aureus (Rif-res) [5]): 16 µg/mL (≈ 57.5 µM) | MIC (E. coli (BAS) [6]; [9]): 8 µg/mL (≈ 28.7 µM) | MIC (E. coli (MCR106) [7]; Escherichia coli): > 64 µg/mL | MIC (S. Aureus [8]; [10]): 16 µg/mL (≈ 57.5 µM)

c1ccc2cc3c(Nc4ccc(N5CCCCCC5)cc4)ccnc3cc2c1 [N-[4-(1-azepanyl)phenyl]benzo[g]quinolin-4-amine]
MBC (E. coli (BAS) [1]): > 64 µg/mL | MBC (E. coli (MCR106) [2]): > 64 µg/mL | MBC (S. Aureus [3]): 2 µg/mL (≈ 5.44 µM) | MIC (S. Aureus (Rif-res) [4]; Staphylococcus aureus): 1 µg/mL (≈ 2.72 µM) | MBC (S. Aureus (Rif-res) [5]): 1 µg/mL (≈ 2.72 µM) | MIC (E. coli (BAS) [6]; [9]): > 64 µg/mL | MIC (E. coli (MCR106) [7]; Escherichia coli): > 64 µg/mL | MIC (S. Aureus [8]; [10]): 2 µg/mL (≈ 5.44 µM)

CCN1CCC(c2ccc(Nc3ccnc4cc5ccccc5cc34)cc2)CC1 [N-[4-(1-ethyl-4-piperidyl)phenyl]benzo[g]quinolin-4-amine]
MBC (E. coli (BAS) [1]): 32 µg/mL (≈ 83.9 µM) | MBC (E. coli (MCR106) [2]): 32 µg/mL (≈ 83.9 µM) | MBC (S. Aureus [3]): 64 µg/mL (≈ 168 µM) | MIC (S. Aureus (Rif-res) [4]; Staphylococcus aureus): 32 µg/mL (≈ 83.9 µM) | MBC (S. Aureus (Rif-res) [5]): 32 µg/mL (≈ 83.9 µM) | MIC (E. coli (BAS) [6]; [9]): 32 µg/mL (≈ 83.9 µM) | MIC (S. Aureus [8]; [10]): 64 µg/mL (≈ 168 µM)

c1ccc2cc3c(Nc4ccc(N5CCCCC5)cc4)ccnc3cc2c1 [N-[4-(1-piperidinyl)phenyl]benzo[g]quinolin-4-amine]
MBC (E. coli (BAS) [1]): 2 µg/mL (≈ 5.66 µM) | MBC (E. coli (MCR106) [2]): > 64 µg/mL | selectivity for bacterial RNA polymerase relative to human RNA polymerase (bacterial RNA polymerase): highest degree of selectivity for bacterial RNA polymerases | MBC (S. Aureus [3]): 4 µg/mL (≈ 11.3 µM) | MIC (S. Aureus (Rif-res) [4]; Staphylococcus aureus): 2 µg/mL (≈ 5.66 µM) | MBC (S. Aureus (Rif-res) [5]): 2 µg/mL (≈ 5.66 µM) | MIC (E. coli (BAS) [6]; [9]): 2 µg/mL (≈ 5.66 µM) | MIC (E. coli (MCR106) [7]; Escherichia coli): > 64 µg/mL | antimicrobial activity against E. coli (E. coli (MCR106) [7]; in words, MIC and MBC, E. coli strain not named): less effective against E. coli | MIC (S. Aureus [8]; [10]): 2 µg/mL (≈ 5.66 µM) | antimicrobial activity against S. aureus (S. Aureus [8]; in words, MIC and MBC, compared with the other compounds): most potent antimicrobial activity against s. aureus

C#CCCN1CCN(c2ccc(Nc3ccnc4cc5ccccc5cc34)cc2)CC1 [N-{4-[4-(3-butynyl)-1-piperazinyl]phenyl}benzo[g]quinolin-4-amine]
MBC (E. coli (BAS) [1]): > 64 µg/mL | MBC (E. coli (MCR106) [2]): > 64 µg/mL | MBC (S. Aureus [3]): 16 µg/mL (≈ 39.4 µM) | MIC (S. Aureus (Rif-res) [4]; Staphylococcus aureus): 16 µg/mL (≈ 39.4 µM) | MBC (S. Aureus (Rif-res) [5]): 16 µg/mL (≈ 39.4 µM) | MIC (E. coli (BAS) [6]; [9]): > 64 µg/mL | MIC (E. coli (MCR106) [7]; Escherichia coli): > 64 µg/mL | MIC (S. Aureus [8]; [10]): 16 µg/mL (≈ 39.4 µM)

CCN(CC)CCNc1ccc(Nc2ccnc3cc4ccccc4cc23)cc1 [N^1-benzo[g]quinolin-4-yl-N^4-[2-(diethylamino)ethyl]-1,4-benzenediamine]
MBC (E. coli (BAS) [1]): 16 µg/mL (≈ 41.6 µM) | MBC (E. coli (MCR106) [2]): 16 µg/mL (≈ 41.6 µM) | MBC (S. Aureus [3]): 16 µg/mL (≈ 41.6 µM) | MIC (S. Aureus (Rif-res) [4]; Staphylococcus aureus): 8 µg/mL (≈ 20.8 µM) | MBC (S. Aureus (Rif-res) [5]): 8 µg/mL (≈ 20.8 µM) | MIC (E. coli (BAS) [6]; [9]): 4 µg/mL (≈ 10.4 µM) | MIC (E. coli (MCR106) [7]; Escherichia coli): 8 µg/mL (≈ 20.8 µM) | MIC (S. Aureus [8]; [10]): 16 µg/mL (≈ 41.6 µM)

CC(C)Nc1ccc(Nc2ccnc3cc4ccccc4cc23)cc1 [N^1-benzo[g]quinolin-4-yl-N^4-isopropyl-1,4,benzenediamine]
MBC (E. coli (BAS) [1]): > 64 µg/mL | MBC (E. coli (MCR106) [2]): > 64 µg/mL | MBC (S. Aureus [3]): 8 µg/mL (≈ 24.4 µM) | MIC (S. Aureus (Rif-res) [4]; Staphylococcus aureus): 32 µg/mL (≈ 97.7 µM) | MBC (S. Aureus (Rif-res) [5]): 32 µg/mL (≈ 97.7 µM) | MIC (E. coli (BAS) [6]; [9]): > 64 µg/mL | MIC (E. coli (MCR106) [7]; Escherichia coli): > 64 µg/mL | MIC (S. Aureus [8]; [10]): 8 µg/mL (≈ 24.4 µM)

N-{5-benzo[g]quinolin-4-yl-3-[(diethylamino)methyl]-2-methylbenzyl}-N-ethyl-1-ethanamine
MBG (E. coli (BAS) [1]): 16 µg/mL | MBG (E. coli (MCR106) [2]): > 64 µg/mL | MBG (S. Aureus [3]; S. Aureus, minimum bactericidal concentration): 64 µg/mL | MIC (S. Aureus (Rif-res) [4]; S. Aureus (Rif-res), rifampicin-resistant): 32 µg/mL | MBG (S. Aureus (Rif-res) [5]; S. Aureus (Rif-res), rifampicin-resistant, minimum bactericidal concentration): 64 µg/mL | MIC (E. coli (BAS) [6]): 16 µg/mL | MIC (E. coli (MCR106) [7]; E. coli (MCR106)): 64 µg/mL | MIC (S. Aureus [8]): 64 µg/mL
